In one data set the target is TMD-5 trimer (Epstein-Barr virus, UniProt P03230). Nature of the data set: Bis-Tris SDS-PAGE of TMD-5 after NMR titration. It counts as binding. To be noted: compound to TMD-5 ratio 4:1.
In another data set the target is T1, TMD of integrin αIIb (Homo sapiens, UniProt P08514).
T1 sequence (P08514 994-1019 limits assumed): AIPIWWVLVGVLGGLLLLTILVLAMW
Nature of the data set: ToxR reporter assay of integrin αIIb TMD oligomerization. To be noted: Figure 3c. It counts as cell-based. (In general: A reporter such as luciferase makes a cellular process visible.)

A further data set deals with TMD-5 peptide (Epstein-Barr virus, UniProt P03230). Nature of the data set: NMR titration. It counts as binding. To be noted: 500 MHz, POPC/DHPC bicelles, 37 °C.
Data set [1] concerns the target 12 representative kinases (AKT1, CAMK1, DDR2, GSK-3α, MAPK1, MET, PAK1, PDGFRB, PIM1, PKC-γ, PLK4, SRC). The experiment in a line: Kinase profiling. It counts as biochemical. To be noted: 50 μM compound.
The next data set concerns the target CAMK1 (Homo sapiens, UniProt Q14012). Nature of the data set: Kinase profiling. It counts as biochemical. To be noted: 50 μM compound.
Another data set addresses PDGFRB (Homo sapiens, UniProt P09619). Nature of the data set: Kinase profiling. It counts as biochemical. The conditions noted are these: 50 μM compound.
For data set [2], the system named is B lymphoblastoid cell line 721. To be noted: 100 μM, B 721 cells, 48 h, WST-1. (Tetrazolium assays rely on reduction of a dye to a coloured formazan, in cell work by metabolically active cells.)
In the next data set the target is split luciferase (Photinus pyralis, UniProt P08659). Nature of the data set: Split luciferase false-positive control. The conditions noted are these: false positive evaluation. It counts as biochemical.
split luciferase, sequence (P08659 2-416 limits assumed): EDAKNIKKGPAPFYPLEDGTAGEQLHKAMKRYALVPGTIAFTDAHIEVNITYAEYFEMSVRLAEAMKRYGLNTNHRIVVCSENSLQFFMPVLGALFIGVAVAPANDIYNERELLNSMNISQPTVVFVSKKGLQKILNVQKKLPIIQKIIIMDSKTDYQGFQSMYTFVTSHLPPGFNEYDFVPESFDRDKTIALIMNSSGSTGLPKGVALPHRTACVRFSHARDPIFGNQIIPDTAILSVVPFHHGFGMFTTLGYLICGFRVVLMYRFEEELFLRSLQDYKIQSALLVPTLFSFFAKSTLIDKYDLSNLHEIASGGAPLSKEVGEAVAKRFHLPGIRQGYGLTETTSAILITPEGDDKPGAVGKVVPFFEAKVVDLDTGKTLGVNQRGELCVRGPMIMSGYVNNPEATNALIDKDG
The target in a further data set is LMP-1 TMD-5 (Epstein-Barr virus, UniProt P03230). It counts as cell-based.
Data set [3] deals with TMD of diacylglycerol kinase (DAGK). It counts as cell-based. The conditions noted are these: ToxR assay, Figure 3c.
Data set [4] has as its system NO production (NF-κB downstream signaling). Nature of the data set: Nitric oxide. It counts as cell-based, human. To be noted: 100 μM, EBV positive B 721 cells, 48 h.
For data set [5], the target named is coumarin labeled TMD-5 peptide (LMP-1) (Epstein-Barr virus, UniProt P03230). The experiment in a line: Coumarin fluorescence dequenching assay. It counts as binding.
For data set [6], the system named is full-length LMP-1-mediated NF-κB activity. The experiment in a line: NF-κB luciferase reporter assay in EBV positive B 721 cells. The conditions noted are these: Homo sapiens, B721, 48 h, read-out: IC50 of NF-κB activation. It counts as cell-based.
The data set “Bis-Tris SDS-PAGE” deals with the molecule itself. Nature of the data set: Bis-Tris SDS-PAGE.

Where only a bound is given, the exact number is not on record here.

CAMK1, sequence (Q14012 whole entry, species assumed): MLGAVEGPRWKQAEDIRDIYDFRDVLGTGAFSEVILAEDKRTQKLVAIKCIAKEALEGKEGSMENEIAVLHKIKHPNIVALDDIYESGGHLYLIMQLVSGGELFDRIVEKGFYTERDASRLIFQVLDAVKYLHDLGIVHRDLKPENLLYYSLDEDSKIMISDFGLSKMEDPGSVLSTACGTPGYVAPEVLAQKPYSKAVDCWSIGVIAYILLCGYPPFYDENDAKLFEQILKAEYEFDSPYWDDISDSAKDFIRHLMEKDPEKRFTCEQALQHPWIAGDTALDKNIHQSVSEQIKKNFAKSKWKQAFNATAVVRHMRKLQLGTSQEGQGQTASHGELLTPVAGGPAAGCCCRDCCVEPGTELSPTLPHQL
PDGFRB, sequence (P09619 33-1106, species assumed): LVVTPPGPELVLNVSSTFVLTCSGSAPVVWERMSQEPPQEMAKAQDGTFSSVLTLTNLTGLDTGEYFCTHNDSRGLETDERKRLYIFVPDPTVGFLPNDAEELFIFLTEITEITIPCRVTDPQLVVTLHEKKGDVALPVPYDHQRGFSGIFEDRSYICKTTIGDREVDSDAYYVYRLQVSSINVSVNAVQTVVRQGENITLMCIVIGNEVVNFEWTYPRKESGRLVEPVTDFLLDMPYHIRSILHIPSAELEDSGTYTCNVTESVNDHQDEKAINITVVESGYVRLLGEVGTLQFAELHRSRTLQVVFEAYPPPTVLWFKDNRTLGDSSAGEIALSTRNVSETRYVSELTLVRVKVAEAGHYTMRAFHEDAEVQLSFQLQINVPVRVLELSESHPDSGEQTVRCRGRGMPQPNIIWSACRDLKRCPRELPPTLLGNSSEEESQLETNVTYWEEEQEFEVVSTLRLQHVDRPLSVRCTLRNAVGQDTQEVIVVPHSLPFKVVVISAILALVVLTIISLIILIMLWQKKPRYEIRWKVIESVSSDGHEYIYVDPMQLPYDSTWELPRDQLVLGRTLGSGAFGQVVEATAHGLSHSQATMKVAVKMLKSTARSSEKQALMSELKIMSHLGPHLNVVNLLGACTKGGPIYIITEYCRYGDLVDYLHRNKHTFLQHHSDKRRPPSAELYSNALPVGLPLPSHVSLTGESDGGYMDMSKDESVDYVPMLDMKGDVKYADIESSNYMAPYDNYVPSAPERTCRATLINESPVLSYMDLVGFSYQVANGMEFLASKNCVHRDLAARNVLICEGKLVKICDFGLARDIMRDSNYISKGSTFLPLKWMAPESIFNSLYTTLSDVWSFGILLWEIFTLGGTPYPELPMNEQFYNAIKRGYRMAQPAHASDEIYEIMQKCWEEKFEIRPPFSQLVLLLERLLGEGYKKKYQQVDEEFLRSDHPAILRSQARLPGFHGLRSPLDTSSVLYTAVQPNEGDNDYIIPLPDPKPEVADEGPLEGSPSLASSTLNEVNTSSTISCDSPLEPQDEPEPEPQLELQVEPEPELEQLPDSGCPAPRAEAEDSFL

For `N=C(N)c1ccc(C=Cc2ccc(C(=N)N)cc2O)cc1.O=S(=O)(O)CCO.O=S(=O)(O)CCO` [Compound 1], the “disruption of TMD-5 trimer to monomer on SDS-PAGE” value on TMD-5 trimer is recorded as “disrupts the TMD-5 trimer”. For the same molecule, the “inhibition of integrin αIIb TMD oligomerization” value on TMD of integrin αIIb is “No apparent oligomerization inhibition”. Besides, the “chemical shift changes of TMD-5 on titration” value at TMD-5 peptide is listed as “induced chemical shift changes at a number of sites including the deeply buried Asp 150”. Also, the “kinase activity retained (ten out of twelve kinases)” value in data set [1] was over 95%. At CAMK1, the “inhibition of CAMK1” value is recorded as “approximately 20%”. Moreover, on PDGFRB, the “inhibition of PDGFRB” value is recorded as “approximately 20%”. Also, the “cytotoxicity / growth inhibition” value in data set [2] is recorded as “No apparent growth inhibition”. Further, the “inhibition of luciferase control” value against split luciferase is on record as “did not inhibit luciferase control”. In addition, the IC50 on LMP-1 TMD-5 (read-out: IC50 to disrupt TMD-5 oligomerization in whole cells, ToxR assay, dose-dependent titration) is 90 ± 10.5 µM. In addition, the “inhibition of DAGK TMD oligomerization” value in data set [3] is “did not inhibit DAGK TMD oligomerization”. Further, the “effect on NO over-production” value in data set [4] is on record as “suppress NO over-production”. Besides, in [5] (in the absence of C14 betaine detergent), the “coumarin labeled TMD-5 fluorescence increase without detergent” value is reported as “failed to cause coumarin labeled TMD-5 fluorescence increase”.
For the molecule `C(=Cc1ccc(-c2nc(-c3ccccc3)nc(-c3ccccc3)n2)cc1)c1ccc(-c2nc(-c3ccccc3)nc(-c3ccccc3)n2)cc1` [Compound 6, 2,2'-(1,2-ethenediyldi-4,1-phenylene)bis(4,6-diphenyl-1,3,5-triazine), reference compound], the IC50 in data set [6] stood at 180 ± 27.5 µM. The “inhibition of TMD-5 oligomerization (ToxR assay), in words” value on LMP-1 TMD-5 (Figure 3e/3f) was “did not inhibit TMD-5 oligomerization”. Also, the “effect on NO over-production” value in data set [4] is given as “no significant inhibition activity”. Besides, the “disruption of TMD-5 association (coumarin fluorescence dequenching), in words” value in data set [5] (100 nM coumarin-labeled TMD-5, 150 μM C14 betaine, pH 7.4) was “did not inhibit TMD-5 oligomerization”.
GGPGWQLLAFFLAFFLDLILLIIALYLGPGG [TMD-5 peptide (GGPG-WQLLAFFLAFFLDLILLIIALYL-GPGG) derived from LMP-1]: the “stoichiometry N” value in the data set “Bis-Tris SDS-PAGE” was determined as 3.

One may read the IC50 as the concentration needed to halve the response being measured. For orientation: stoichiometry N means the number of molecules, sites or subunits per partner or assembly.

For the origin of these results see article PMC3378808 (Biochimica et Biophysica Acta, 2012).
